For 21 compounds, AC50 results are on record in ChEMBL document CHEMBL5291721, “A preclinical secondary pharmacology resource illuminates target-adverse drug reaction associations of marketed drugs” (Nat Commun, 2023).

Test [1] concerns the target T1, Adenosine receptor A1 (Homo sapiens, UniProt P30542).
T1 sequence (P30542 whole entry): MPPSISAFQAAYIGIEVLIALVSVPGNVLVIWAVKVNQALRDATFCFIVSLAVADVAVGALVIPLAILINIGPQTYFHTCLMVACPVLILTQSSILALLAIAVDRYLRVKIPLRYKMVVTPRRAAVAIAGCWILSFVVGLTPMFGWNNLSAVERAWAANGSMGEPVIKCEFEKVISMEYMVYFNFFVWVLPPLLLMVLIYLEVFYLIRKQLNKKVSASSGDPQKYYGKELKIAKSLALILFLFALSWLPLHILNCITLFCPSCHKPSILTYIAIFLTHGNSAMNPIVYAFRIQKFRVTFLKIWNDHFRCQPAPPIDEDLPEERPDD

For test [2], the target named is Melanocortin receptor 3 (Homo sapiens, UniProt P41968).
Test [3] concerns the target 3',5'-cyclic-AMP phosphodiesterase 4D (Homo sapiens, UniProt Q08499). The format is functional.
The target of test [4] is T2, Prostaglandin G/H synthase 1 (Rattus norvegicus, UniProt Q63921).
T2 sequence (Q63921 whole entry): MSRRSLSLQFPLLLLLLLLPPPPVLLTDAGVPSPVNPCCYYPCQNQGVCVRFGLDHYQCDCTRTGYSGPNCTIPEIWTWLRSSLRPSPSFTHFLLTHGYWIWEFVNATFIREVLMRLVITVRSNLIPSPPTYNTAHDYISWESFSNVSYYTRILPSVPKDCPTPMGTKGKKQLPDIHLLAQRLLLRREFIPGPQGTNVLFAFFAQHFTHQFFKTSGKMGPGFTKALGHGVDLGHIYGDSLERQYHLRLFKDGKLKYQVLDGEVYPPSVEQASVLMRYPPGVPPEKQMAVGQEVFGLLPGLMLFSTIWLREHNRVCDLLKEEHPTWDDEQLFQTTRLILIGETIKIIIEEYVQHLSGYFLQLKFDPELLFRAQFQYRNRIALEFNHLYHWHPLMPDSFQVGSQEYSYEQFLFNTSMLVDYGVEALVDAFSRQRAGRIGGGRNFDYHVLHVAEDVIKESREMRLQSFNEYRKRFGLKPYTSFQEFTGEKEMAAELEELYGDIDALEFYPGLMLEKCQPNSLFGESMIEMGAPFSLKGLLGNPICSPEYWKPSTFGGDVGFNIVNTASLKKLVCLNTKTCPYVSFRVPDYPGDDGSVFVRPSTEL
The format is functional.

For test [5], the target named is T3, Muscarinic acetylcholine receptor M2 (Homo sapiens, UniProt P08172).
T3 sequence (P08172 whole entry): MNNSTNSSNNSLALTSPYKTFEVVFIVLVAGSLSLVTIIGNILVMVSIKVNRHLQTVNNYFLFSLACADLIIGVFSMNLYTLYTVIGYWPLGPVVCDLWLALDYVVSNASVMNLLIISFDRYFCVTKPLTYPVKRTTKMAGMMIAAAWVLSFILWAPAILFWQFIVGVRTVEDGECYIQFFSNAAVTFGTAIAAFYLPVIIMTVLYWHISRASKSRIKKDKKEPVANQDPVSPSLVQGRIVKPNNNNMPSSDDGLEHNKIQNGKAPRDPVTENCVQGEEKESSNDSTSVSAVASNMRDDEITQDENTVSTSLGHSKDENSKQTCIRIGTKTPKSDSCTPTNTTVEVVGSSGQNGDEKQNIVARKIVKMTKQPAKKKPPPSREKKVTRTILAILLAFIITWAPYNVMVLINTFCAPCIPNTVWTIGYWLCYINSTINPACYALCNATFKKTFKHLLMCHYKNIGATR
It counts as functional, cell-based.

Test [6] concerns the target Vasopressin V1a receptor (Homo sapiens, UniProt P37288).
Test [7] deals with T4, Gastrin/cholecystokinin type B receptor (Homo sapiens, UniProt P32239).
T4 sequence (P32239 whole entry): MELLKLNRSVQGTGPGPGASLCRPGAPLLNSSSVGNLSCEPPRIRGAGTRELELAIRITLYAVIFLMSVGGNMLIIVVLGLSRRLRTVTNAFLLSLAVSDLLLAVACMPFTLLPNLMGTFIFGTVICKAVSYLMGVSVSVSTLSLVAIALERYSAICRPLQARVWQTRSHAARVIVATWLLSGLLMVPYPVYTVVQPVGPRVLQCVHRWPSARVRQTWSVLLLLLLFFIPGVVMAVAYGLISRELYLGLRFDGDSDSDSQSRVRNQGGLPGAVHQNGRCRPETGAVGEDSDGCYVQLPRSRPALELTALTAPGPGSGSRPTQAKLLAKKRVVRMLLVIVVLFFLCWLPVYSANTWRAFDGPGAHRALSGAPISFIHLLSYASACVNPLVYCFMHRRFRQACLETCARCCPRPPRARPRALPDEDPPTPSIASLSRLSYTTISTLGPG
Also: assay procedure not described here.

Sequence of Melanocortin receptor 3 (P41968 whole entry): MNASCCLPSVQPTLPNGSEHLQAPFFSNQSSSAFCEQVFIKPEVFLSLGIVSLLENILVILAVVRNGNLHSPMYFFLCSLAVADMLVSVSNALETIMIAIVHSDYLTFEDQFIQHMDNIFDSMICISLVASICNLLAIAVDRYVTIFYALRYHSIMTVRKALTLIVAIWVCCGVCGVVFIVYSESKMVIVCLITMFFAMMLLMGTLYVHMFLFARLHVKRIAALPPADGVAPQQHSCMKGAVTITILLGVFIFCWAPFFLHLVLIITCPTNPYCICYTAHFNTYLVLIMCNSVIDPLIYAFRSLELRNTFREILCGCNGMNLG
Sequence of Vasopressin V1a receptor (P37288 whole entry): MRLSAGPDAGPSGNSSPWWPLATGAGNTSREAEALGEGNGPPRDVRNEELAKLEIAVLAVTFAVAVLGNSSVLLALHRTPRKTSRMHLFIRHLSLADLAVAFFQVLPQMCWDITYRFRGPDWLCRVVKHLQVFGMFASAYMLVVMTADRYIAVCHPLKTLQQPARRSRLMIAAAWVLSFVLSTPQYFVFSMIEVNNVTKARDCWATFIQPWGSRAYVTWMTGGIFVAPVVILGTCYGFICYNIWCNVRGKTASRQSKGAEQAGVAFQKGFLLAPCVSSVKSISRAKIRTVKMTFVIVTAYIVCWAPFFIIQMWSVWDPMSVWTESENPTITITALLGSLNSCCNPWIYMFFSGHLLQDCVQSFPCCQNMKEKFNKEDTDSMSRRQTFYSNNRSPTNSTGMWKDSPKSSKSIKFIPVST
Sequence of 3',5'-cyclic-AMP phosphodiesterase 4D (Q08499 whole entry): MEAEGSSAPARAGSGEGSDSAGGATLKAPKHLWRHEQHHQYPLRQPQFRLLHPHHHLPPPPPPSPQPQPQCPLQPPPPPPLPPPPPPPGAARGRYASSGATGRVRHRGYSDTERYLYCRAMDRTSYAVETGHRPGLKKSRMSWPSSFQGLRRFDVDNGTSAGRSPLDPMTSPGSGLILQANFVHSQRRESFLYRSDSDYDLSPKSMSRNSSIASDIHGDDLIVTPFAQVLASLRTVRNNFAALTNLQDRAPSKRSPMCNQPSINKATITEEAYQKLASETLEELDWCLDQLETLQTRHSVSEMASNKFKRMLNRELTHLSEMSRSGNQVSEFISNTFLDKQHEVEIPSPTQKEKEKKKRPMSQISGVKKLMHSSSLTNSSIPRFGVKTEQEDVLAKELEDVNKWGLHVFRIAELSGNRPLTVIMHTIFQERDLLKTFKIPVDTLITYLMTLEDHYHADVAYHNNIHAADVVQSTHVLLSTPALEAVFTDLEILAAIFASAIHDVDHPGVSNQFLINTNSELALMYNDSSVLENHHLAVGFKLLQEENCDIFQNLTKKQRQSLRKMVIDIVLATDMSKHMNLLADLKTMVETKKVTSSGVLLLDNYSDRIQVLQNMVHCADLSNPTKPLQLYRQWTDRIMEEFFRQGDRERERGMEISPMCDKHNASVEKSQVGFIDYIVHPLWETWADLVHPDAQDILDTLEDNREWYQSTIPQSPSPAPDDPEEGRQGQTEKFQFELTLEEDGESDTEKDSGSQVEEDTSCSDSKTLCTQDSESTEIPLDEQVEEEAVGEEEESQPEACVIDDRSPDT

In general, AC50 refers to the midpoint of the concentration-response curve, whichever way the signal moves. A higher AC50 goes with activity only at high concentration. Turning to `CC1=C(CC(=O)O)c2cc(F)ccc2/C1=C\c1ccc([S+](C)[O-])cc1` (centres undefined), the concentration at half-maximal activity (AC50) in test [1] is greater than 30 µM; in test [2], greater than 30 µM; in test [3] it was greater than 30 µM; in test [4] it was greater than 30 µM; in test [5] it was greater than 10 µM; in test [6], greater than 30 µM. Further, in test [7], the AC50 is greater than 30 µM.

For the compound `NS(=O)(=O)c1ccc(N2CCCCS2(=O)=O)cc1`, the concentration at half-maximal activity (AC50) in test [1], in test [2], in test [3], in test [4], in test [5] and in test [6] was greater than 30 µM in each case. For the same compound, the AC50 in test [7] was greater than 30 µM.

Turning to `O=C(O[C@H]1C[N+]2(CCCOc3ccccc3)CCC1CC2)C(O)(c1cccs1)c1cccs1` [ACLIDINIUM BROMIDE], the AC50 in test [1] was greater than 30 µM; in test [2], greater than 30 µM; in test [3], greater than 30 µM; in test [4], greater than 30 µM; in test [6], greater than 10 µM; in test [7] it was greater than 30 µM.

As for `Cc1nnc2n1-c1ccc(Cl)cc1C(c1ccccc1)=NC2` [ALPRAZOLAM], the AC50 in test [1] is greater than 30 µM; in test [2] it was greater than 30 µM; in test [3], greater than 30 µM; in test [4], greater than 30 µM; in test [5], greater than 10 µM; in test [6], greater than 10 µM. Besides, the AC50 in test [7] was greater than 30 µM.

As to `O=C(O)CCCC[C@@H]1SC[C@@H]2NC(=O)N[C@@H]21` [BIOTIN], the AC50 in test [1] was greater than 10 µM; in test [2] it was greater than 10 µM; in test [3], greater than 30 µM; in test [4], greater than 10 µM; in test [5] it was greater than 10 µM.

With `CC(NC(C)(C)C)C(=O)c1cccc(Cl)c1` (centres undefined) [BUPROPION], the AC50 in test [1] was greater than 30 µM; in test [2] it was greater than 30 µM; in test [5], greater than 10 µM; in test [6], greater than 10 µM; in test [7], greater than 30 µM.

Take `Oc1cc(O)c2c(c1)O[C@H](c1ccc(O)c(O)c1)[C@@H](O)C2` [CIANIDANOL]: the concentration at half-maximal activity (AC50) in test [1] was greater than 30 µM; in test [2], greater than 30 µM; in test [3] it was greater than 30 µM; in test [5], greater than 10 µM; in test [6], greater than 30 µM; in test [7], greater than 30 µM.

Regarding `O=C1CN=C(c2ccccc2Cl)c2cc([N+](=O)[O-])ccc2N1` [CLONAZEPAM], the AC50 in test [1] is greater than 30 µM; in test [2], greater than 30 µM; in test [3], greater than 30 µM; in test [4], greater than 30 µM; in test [5], greater than 10 µM; in test [6] it was greater than 10 µM. In addition, in test [7], the AC50 is greater than 30 µM.

Take `CC(=O)Oc1cccc2c1C(=O)c1c(OC(C)=O)cc(C(=O)O)cc1C2=O` [DIACEREIN]: the AC50 in test [1] was 24 µM; in test [2], greater than 30 µM; in test [3], 8.8 µM; in test [4] it was 0.9 µM; in test [6], 25 µM; in test [7], greater than 30 µM.

On to `CCN(CC)C(C)C(=O)c1ccccc1` (centres undefined) [DIETHYLPROPION], for which the AC50 in test [1] is greater than 30 µM; in test [2], greater than 30 µM; in test [3], greater than 30 µM; in test [4] it was greater than 30 µM; in test [5], greater than 10 µM; in test [6] it was greater than 30 µM. The same compound had an AC50 in test [7] greater than 30 µM.

Consider `OCCN(CCO)c1nc(N2CCCCC2)c2nc(N(CCO)CCO)nc(N3CCCCC3)c2n1` [DIPYRIDAMOLE], for which the AC50 was greater than 30 µM in test [1]; greater than 30 µM in test [2]; 4.5 µM in test [3]; greater than 30 µM in test [4]; greater than 30 µM in test [5]; greater than 30 µM in test [7].

For `Cc1ccc(-c2ncc(Cl)cc2-c2ccc(S(C)(=O)=O)cc2)cn1` [ETORICOXIB], the AC50 was greater than 10 µM in test [1]; greater than 10 µM in test [2]; 9 µM in test [3]; greater than 30 µM in test [4]; greater than 10 µM in test [5]; greater than 30 µM in test [6]. The AC50 in test [7] was greater than 10 µM.

With `CC(=O)OCC(=O)[C@@]1(O)CC[C@H]2[C@@H]3CCC4=CC(=O)CC[C@]4(C)[C@@]3(F)[C@@H](O)C[C@@]21C` [FLUDROCORTISONE ACETATE], the AC50 in test [1], in test [2], in test [3], in test [4], in test [5] and in test [7] was greater than 30 µM in each case.

`CN1C(=O)CN=C(c2ccccc2F)c2cc([N+](=O)[O-])ccc21` [FLUNITRAZEPAM]: the AC50 in test [1] was greater than 30 µM; in test [2], 18.6 µM; in test [3], greater than 30 µM; in test [4], greater than 30 µM; in test [5], greater than 10 µM; in test [6] it was greater than 10 µM.

Regarding `CC(=O)[C@@]1(O)CC[C@H]2[C@@H]3C[C@H](C)C4=CC(=O)C=C[C@]4(C)[C@@]3(F)[C@@H](O)C[C@@]21C` [FLUOROMETHOLONE], the AC50 was greater than 10 µM in test [1]; greater than 10 µM in test [2]; greater than 30 µM in test [3]; greater than 10 µM in test [4]; greater than 10 µM in test [5].

As for `CC1Cc2ccccc2N1NC(=O)c1ccc(Cl)c(S(N)(=O)=O)c1` (centres undefined) [INDAPAMIDE], the AC50 was greater than 30 µM in test [1]; greater than 30 µM in test [2]; greater than 10 µM in test [3]; greater than 30 µM in test [4]; greater than 10 µM in test [5]; greater than 30 µM in test [7].

As for `CCN(CC)CC(=O)Nc1c(C)cccc1C` [LIDOCAINE], the AC50 is greater than 30 µM in test [1]; 23 µM in test [2]; greater than 10 µM in test [3]; greater than 30 µM in test [4]; greater than 10 µM in test [6]; greater than 30 µM in test [7].

As to `Nc1cc(N2CCCCC2)nc(N)[n+]1[O-]` [MINOXIDIL], the AC50 in test [1] is greater than 30 µM; in test [2] it was greater than 30 µM; in test [3], greater than 30 µM; in test [4], greater than 30 µM; in test [5], greater than 10 µM; in test [7] it was greater than 30 µM.

Regarding `CCOC(=O)O[C@]1(C(=O)COC(=O)CC)CC[C@H]2[C@@H]3CCC4=CC(=O)C=C[C@]4(C)[C@H]3[C@@H](O)C[C@@]21C` [PREDNICARBATE], the AC50 in test [1] is greater than 10 µM; in test [2] it was greater than 10 µM; in test [3] it was greater than 30 µM; in test [4], greater than 10 µM; in test [5], greater than 10 µM; in test [6], greater than 10 µM.

Consider `CCC(=O)[C@@]1(C)[C@H](C)C[C@H]2[C@@H]3CCC4=CC(=O)C=C[C@]4(C)[C@H]3[C@@H](O)C[C@@]21C` [RIMEXOLONE], for which the AC50 in test [1] was greater than 10 µM; in test [2], greater than 10 µM; in test [3], greater than 30 µM; in test [4], greater than 10 µM; in test [5], greater than 10 µM; in test [6] it was greater than 10 µM.

Take SITOSTEROLS: the AC50 in test [1] was greater than 30 µM; in test [2], greater than 30 µM; in test [3], greater than 10 µM; in test [5] it was greater than 30 µM; in test [6] it was greater than 30 µM; in test [7], greater than 10 µM.
